In the assay the target is POLRMT (Homo sapiens (Human), UniProt O00411). In words: homogeneous TR-FRET assay of mitochondrial transcription (inhibition of POLRMT). The format is biochemical. Particulars: 7.5 nM POLRMT, 15 nM TFB2M, 30 nM TFAM, 0.5 nM DNA template, 500 μM NTPs, 37° C. for 60 minutes. A digest of the protocol:
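POLRMT transcription from linearized pUC-LSP DNA template; RNA product detected by hybridization of ATTO647 acceptor (1 nM) and biotinylated donor (3 nM) probes plus Europium-streptavidin. Reaction stopped with EDTA/700 mM NaCl buffer, pH 7.5.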
In general terms: TR-FRET usually uses a lanthanide donor and a delayed reading to cut background.

From patent publication US20250326732A1 (Pretzel Therapeutics, Inc., priority 2021, published 2025) come the findings set out here.

Sequence of POLRMT (O00411 42-1230): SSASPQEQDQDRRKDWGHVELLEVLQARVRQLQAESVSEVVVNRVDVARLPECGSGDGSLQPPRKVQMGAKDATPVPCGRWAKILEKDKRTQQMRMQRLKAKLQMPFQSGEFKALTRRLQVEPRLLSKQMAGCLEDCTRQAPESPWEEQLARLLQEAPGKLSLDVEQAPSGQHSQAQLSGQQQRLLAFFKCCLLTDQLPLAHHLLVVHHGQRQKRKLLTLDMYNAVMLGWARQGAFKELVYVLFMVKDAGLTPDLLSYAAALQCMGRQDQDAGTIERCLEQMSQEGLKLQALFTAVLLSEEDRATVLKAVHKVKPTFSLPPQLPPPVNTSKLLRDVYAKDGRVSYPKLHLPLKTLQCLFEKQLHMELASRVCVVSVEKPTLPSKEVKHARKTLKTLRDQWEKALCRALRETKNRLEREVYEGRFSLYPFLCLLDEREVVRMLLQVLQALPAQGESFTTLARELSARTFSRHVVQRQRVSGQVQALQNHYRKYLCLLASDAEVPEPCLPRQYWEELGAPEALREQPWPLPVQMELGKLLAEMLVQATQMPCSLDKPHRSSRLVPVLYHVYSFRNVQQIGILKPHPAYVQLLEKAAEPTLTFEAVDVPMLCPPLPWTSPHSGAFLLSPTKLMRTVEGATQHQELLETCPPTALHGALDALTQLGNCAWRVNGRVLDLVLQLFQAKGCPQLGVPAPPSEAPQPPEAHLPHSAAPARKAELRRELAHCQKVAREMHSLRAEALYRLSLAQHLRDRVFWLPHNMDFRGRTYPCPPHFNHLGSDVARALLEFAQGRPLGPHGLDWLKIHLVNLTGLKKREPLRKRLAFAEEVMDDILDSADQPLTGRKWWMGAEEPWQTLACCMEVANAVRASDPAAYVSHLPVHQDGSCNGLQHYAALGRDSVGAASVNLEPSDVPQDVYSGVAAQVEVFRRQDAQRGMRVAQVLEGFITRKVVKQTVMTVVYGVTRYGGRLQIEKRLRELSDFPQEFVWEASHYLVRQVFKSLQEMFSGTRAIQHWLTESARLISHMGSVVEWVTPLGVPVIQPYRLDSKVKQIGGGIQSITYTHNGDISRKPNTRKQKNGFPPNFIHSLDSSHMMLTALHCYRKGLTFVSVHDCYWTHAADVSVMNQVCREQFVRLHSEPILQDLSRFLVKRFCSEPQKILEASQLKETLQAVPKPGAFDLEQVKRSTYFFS

By IC50 is commonly meant the concentration at which inhibition is half-maximal. A high value points to a need for much substance. With `CC(O)c1ccc2c(-c3ccc(F)cc3Cl)cc(=O)oc2c1` (stereo not shown) [Example 40, 4-(2-chloro-4-fluorophenyl)-7-(1-hydroxyethyl)-2H-chromen-2-one], the IC50 worked out at 2000 nM. `Cc1ccccc1-c1cc(=O)oc2cc(C#N)ccc12` [Example 43, 2-oxo-4-(o-tolyl)-2H-chromene-7-carbonitrile] returned a half-inhibitory concentration (IC50) of 13000 nM. `CC(=O)N(C)c1ccc2c(-c3ccccc3C)cc(=O)oc2c1` [Example 44, N-methyl-N-(2-oxo-4-(o-tolyl)-2H-chromen-7-yl)acetamide] returned a 50% inhibitory concentration (IC50) of 12000 nM.

Take `C[C@H](C(=O)N1CCCCC1)N(C)c1ccc2c(-c3ccc(F)cc3Cl)cc(=O)oc2c1` [Example 45, (R)-4-(2-chloro-4-fluorophenyl)-7-(methyl(1-oxo-1-(piperidin-1-yl)propan-2-yl)amino)-2H-chromen-2-one]: the concentration for half-maximal inhibition (IC50) is 50 nM. The same measure for `C[C@H](C(=O)N(C)C)N(C)c1ccc2c(-c3ccc(F)cc3Cl)cc(=O)oc2c1` [Example 46, (R)-2-((4-(2-chloro-4-fluorophenyl)-2-oxo-2H-chromen-7-yl)(methyl)amino)-N,N-dimethylpropanamide]: 50 nM; for `C[C@@H](Nc1ccc2c(-c3ccc(F)cc3Cl)cc(=O)oc2c1)C(=O)N1CCOCC1` [Example 47, (R)-4-(2-chloro-4-fluorophenyl)-7-((1-morpholino-1-oxopropan-2-yl)amino)-2H-chromen-2-one]: 400 nM; for `CCNC(=O)[C@@H](C)Nc1ccc2c(-c3ccc(F)cc3Cl)cc(=O)oc2c1` [Example 48, (R)-2-((4-(2-chloro-4-fluorophenyl)-2-oxo-2H-chromen-7-yl)amino)-N-ethylpropanamide]: 3000 nM. The same measure for `Cc1ccccc1-c1cc(=O)oc2cc(CCC(=O)N3CCCCC3)ccc12` [Example 49, 7-(3-oxo-3-(piperidin-1-yl)propyl)-4-(o-tolyl)-2H-chromen-2-one]: 1000 nM; for `CCOC(=O)/C(C)=C/c1ccc2c(-c3ccccc3C)cc(=O)oc2c1` [Example 50, ethyl (E)-2-methyl-3-(2-oxo-4-(o-tolyl)-2H-chromen-7-yl)acrylate]: 2000 nM.

Compound `CCOC(=O)C(C)Cc1ccc2c(-c3ccccc3C)cc(=O)oc2c1` (stereo not shown) [Example 51, ethyl 2-methyl-3-[4-(o-tolyl)-2-oxo-chromen-7-yl]propanoate] came in with a half-inhibitory concentration (IC50) of 300 nM. The same measure for `Cc1ccccc1-c1cc(=O)oc2cc(CC(C)C(=O)O)ccc12` (stereo not shown) [Example 52, 2-methyl-3-[4-(o-tolyl)-2-oxo-chromen-7-yl]propanoic acid]: 200 nM. The same measure for `CCOC(=O)/C=C/c1ccc2c(-c3ccccc3C)cc(=O)oc2c1` [Example 53, ethyl (E)-3-(2-oxo-4-(o-tolyl)-2H-chromen-7-yl)acrylate]: 2000 nM; for `CCOC(=O)CCc1ccc2c(-c3ccccc3C)cc(=O)oc2c1` [Example 54, ethyl 3-(2-oxo-4-(o-tolyl)-2H-chromen-7-yl)propanoate]: 900 nM; for `C[C@H](C(=O)N1CCOCC1)N(C)c1ccc2c(-c3ccc(F)cc3Cl)cc(=O)oc2c1` [Example 55, (R)-4-(2-chloro-4-fluorophenyl)-7-(methyl(1-morpholino-1-oxopropan-2-yl)amino)-2H-chromen-2-one]: 70 nM. The same measure for `CCNC(=O)[C@@H](C)N(C)c1ccc2c(-c3ccc(F)cc3Cl)cc(=O)oc2c1` [Example 56, (R)-2-((4-(2-chloro-4-fluorophenyl)-2-oxo-2H-chromen-7-yl)(methyl)amino)-N-ethylpropanamide]: 200 nM; for `COC(=O)/C=C(\C)c1ccc2c(-c3ccccc3C)cc(=O)oc2c1` [Example 57, methyl (E)-3-(2-oxo-4-(o-tolyl)-2H-chromen-7-yl)but-2-enoate]: 300 nM. Turning to `COC(=O)CC(C)c1ccc2c(-c3ccccc3C)cc(=O)oc2c1` (stereo not shown) [Example 58, methyl 3-(2-oxo-4-(o-tolyl)-2H-chromen-7-yl)butanoate], half-maximal inhibition (IC50) required 3000 nM. The same measure for `Cc1ccccc1-c1cc(=O)oc2cc(C(C)CC(=O)N3CCCCC3)ccc12` (stereo not shown) [Example 59, 7-(4-oxo-4-(piperidin-1-yl)butan-2-yl)-4-(o-tolyl)-2H-chromen-2-one]: 2000 nM. `Cc1ccccc1-c1cc(=O)oc2cc(N[C@@H](CC(C)C)C(=O)OC(C)(C)C)ccc12` [Example 60, tert-butyl (2-oxo-4-(o-tolyl)-2H-chromen-7-yl)-L-leucinate] returned an IC50 of 8000 nM. The same measure for `Cc1ccccc1-c1cc(=O)oc2cc(NCC(=O)OC(C)(C)C)ccc12` [Example 61, tert-butyl (2-oxo-4-(o-tolyl)-2H-chromen-7-yl)glycinate]: 900 nM; for `Cc1ccccc1-c1cc(=O)oc2cc(N(C)CC(=O)OC(C)(C)C)ccc12` [Example 70, tert-butyl N-methyl-N-(2-oxo-4-(o-tolyl)-2H-chromen-7-yl)glycinate]: 40 nM.

The compound `Cc1ccccc1-c1cc(=O)oc2cc(NCC(=O)O)ccc12` [Example 71, (2-oxo-4-(o-tolyl)-2H-chromen-7-yl)glycine] displayed a concentration for half-maximal inhibition (IC50) of 6000 nM.

`Cc1ccccc1-c1cc(=O)oc2cc(NCC(=O)N3CCCCC3)ccc12` [Example 72, 7-((2-oxo-2-(piperidin-1-yl)ethyl)amino)-4-(o-tolyl)-2H-chromen-2-one] yielded an IC50 of 3000 nM. Consider `Cc1ccccc1-c1cc(=O)oc2cc(N[C@@H](CC(C)C)C(=O)O)ccc12` [Example 73, (2-oxo-4-(o-tolyl)-2H-chromen-7-yl)-L-leucine], for which the IC50 was determined as 3000 nM. The same measure for `COC(C)c1ccc2c(-c3ccccc3C)cc(=O)oc2c1` (stereo not shown) [Example 74, 7-(1-methoxyethyl)-4-(o-tolyl)-2H-chromen-2-one]: 700 nM; for `Cc1ccccc1-c1cc(=O)oc2cc(N(C)[C@H](C)C(=O)N3CCC[C@H](C(=O)O)C3)ccc12` [Example 75, (S)-1-(N-methyl-N-(2-oxo-4-(o-tolyl)-2H-chromen-7-yl)-D-alanyl)piperidine-3-carboxylic acid]: 30 nM. The same measure for `Cc1ccccc1-c1cc(=O)oc2cc(N(C)CC(=O)O)ccc12` [Example 76, N-methyl-N-(2-oxo-4-(o-tolyl)-2H-chromen-7-yl)glycine]: 200 nM; for `CC(=O)N(C)C(C)c1ccc2c(-c3ccccc3C)cc(=O)oc2c1` (stereo not shown) [Example 77, N-methyl-N-(1-(2-oxo-4-(o-tolyl)-2H-chromen-7-yl)ethyl)acetamide]: 2000 nM; for `Cc1ccccc1-c1cc(=O)oc2cc(C(C)N(C)C)ccc12` (stereo not shown) [Example 78, 7-(1-(dimethylamino)ethyl)-4-(o-tolyl)-2H-chromen-2-one]: 44000 nM. With `Cc1ccccc1-c1cc(=O)oc2cc(NCC(=O)N3CCC[C@H](C(=O)O)C3)ccc12` [Example 79, (S)-1-((2-oxo-4-(o-tolyl)-2H-chromen-7-yl)glycyl)piperidine-3-carboxylic acid], half-maximal inhibition (IC50) was put at 2000 nM.

With `Cc1ccccc1-c1cc(=O)oc2cc(N[C@H](C)C(=O)N3CCC[C@H](C(=O)O)C3)ccc12` [Example 80, (S)-1-((2-oxo-4-(o-tolyl)-2H-chromen-7-yl)-D-alanyl)piperidine-3-carboxylic acid], 100 nM corresponded to half-maximal inhibition (IC50). `Cc1ccccc1-c1cc(=O)oc2cc(C(C)N)ccc12` (stereo not shown) [Example 91, 7-(1-aminoethyl)-4-(o-tolyl)-2H-chromen-2-one] yielded a 50% inhibitory concentration (IC50) of 20000 nM. The same measure for `CC(=O)NC(C)c1ccc2c(-c3ccccc3C)cc(=O)oc2c1` (stereo not shown) [Example 96, N-(1-(2-oxo-4-(o-tolyl)-2H-chromen-7-yl)ethyl)acetamide]: 2000 nM. The same measure for `CN(CC(=O)O)c1ccc2c(-c3ccccc3)cc(=O)oc2c1` [Example 101, N-methyl-N-(2-oxo-4-phenyl-2H-chromen-7-yl)glycine]: 10000 nM; for `COC[C@H](Nc1ccc2c(-c3ccccc3C)cc(=O)oc2c1)C(=O)O` [Example 102, O-methyl-N-(2-oxo-4-(o-tolyl)-2H-chromen-7-yl) serine]: 3000 nM; for `COC[C@H](Nc1ccc2c(-c3ccccc3C)cc(=O)oc2c1)C(=O)N1CCC[C@H](C(=O)O)C1` [Example 103, (S)-1-(O-methyl-N-(2-oxo-4-(o-tolyl)-2H-chromen-7-yl)-seryl)piperidine-3-carboxylic acid]: 5000 nM.

Compound `COC[C@@H](Nc1ccc2c(-c3ccccc3C)cc(=O)oc2c1)C(=O)N1CCC[C@H](C(=O)O)C1` [Example 104, (S)-1-(O-methyl-N-(2-oxo-4-(o-tolyl)-2H-chromen-7-yl)-D-seryl)piperidine-3-carboxylic acid] gave an IC50 of 300 nM.

Consider `CN(CC(=O)O)c1ccc2c(-c3ccc(F)cc3Cl)cc(=O)oc2c1` [Example 105, N-(4-(2-chloro-4-fluorophenyl)-2-oxo-2H-chromen-7-yl)-N-methylglycine], for which the midpoint of inhibition, the IC50, lay at 500 nM. The same measure for `Cc1ccccc1-c1cc(=O)oc2cc(N(C)CC(N)=O)ccc12` [Example 106, 2-(methyl(2-oxo-4-(o-tolyl)-2H-chromen-7-yl)amino)acetamide]: 200 nM; for `Cc1ccccc1-c1cc(=O)oc2cc(NCc3ccccc3)ccc12` [Example 107, 7-(benzylamino)-4-(o-tolyl)-2H-chromen-2-one]: 3000 nM.

In the case of `Cc1ccccc1-c1cc(=O)oc2cc(N(C)[C@H](C)C(=O)O)ccc12` [Example 108, N-methyl-N-(2-oxo-4-(o-tolyl)-2H-chromen-7-yl)-D-alanine], the 50% inhibitory concentration (IC50) is 40 nM. Compound `CC(=O)NC1CCN(C(=O)c2ccc3c(-c4ccccc4C)cc(=O)oc3c2)CC1` [Example 109, N-(1-(2-oxo-4-(o-tolyl)-2H-chromene-7-carbonyl)piperidin-4-yl)acetamide] had an IC50 of 5000 nM. The same measure for `CC(=O)N(C)C1CCN(C(=O)c2ccc3c(-c4ccccc4C)cc(=O)oc3c2)CC1` [Example 110, N-methyl-N-(1-(2-oxo-4-(o-tolyl)-2H-chromene-7-carbonyl)piperidin-4-yl)acetamide]: 8000 nM.
